# Test results reported in patent US20240025892A1 (priority 2020, published 2024).
# Read-outs that look alike come from different tables or passages of the source.
# Assays:
# Recombinant SIK2 = Recombinant SIK2 (Homo sapiens (Human), UniProt Q9H0K1); assay: biochemical
# Description: Assays were performed in base reaction buffer (20 mM Hepes (pH 7.5), 10 mM MgCl2, 1 mM EGTA, 0.02% Brij35, 0.02 mg/mL BSA, 0.1 mM Na3VO4, 2 mM DTT, 1% DMSO). Compounds were dissolved in 100% DMSO in a 10 mM stock. […] Assays were performed for 20 minutes at room temperature, after which time ^33P-ATP (10 μCi/μL) was added followed by incubation for another 120 minutes at room temperature. Thereafter, radioactivity incorporated into the pEY peptide substrate was detected by filter-binding method. Kinase activity data were expressed as the percent remaining kinase activity in test samples compared to DMSO reactions. IC50 values and curve fits were obtained using Prism (GraphPad Software).
# RANKL = RANKL gene expression in Ocy454 cells (RT-qPCR); settings: maximal RANKL fold induction versus DMSO, four hours;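 further: Ocy454 cells moved to 37 °C for osteocytic differentiation before compound exposure, RANKL mRNA by SYBR Green qRT-PCR, 2^−ΔΔCT with β-actin normalization, duplicate wells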
# CRTC2 (TORC2) = assay: CRTC2 nuclear translocation (PathHunter U2OS); type: cell-based; settings: maximal CRTC2 nuclear translocation, U2OS cells, 90 minutes, maximum dose 10 μM
# Source text: PathHunter® Nuclear Translocation cell lines are engineered to co-express two fusion proteins: a) Enzyme Donor (ED) tagged target protein; b) an Enzyme Acceptor (EA) tagged TAZ domain, derived from the CBP/P300 transcription factor, that localizes to the nucleus. Activation of the signaling pathway induces translocation of the ED-tagged target protein into the nucleus, which will force complementation of the two enzyme fragments, and result in the formation of a functional enzyme that will hydrolyze substrate and generate a chemiluminescent signal. U2OS CRTC2 (TORC2) translocation assays were performed in 384 well plates at Eurofins DiscoverX (Freemont, CA). Cells were treated with compounds for 90 minutes in experimental duplicates in 5 point dose response format (4-fold serial dilutions with a maximum dose of 10 μM) followed by […] readout on an Envision 2104 Multilabel Reader. In all experiments, forskolin was used as a positive control and maximal CRTC2 nuclear translocation induced by each compound is expressed as a percentage of the signal stimulated by forskolin.
# Representative data are shown in FIG. 4A and presented as percent of the positive control (forskolin) signal.
# [1] = recombinant SIK2 2.5 nM, 1 μM ATP, read-out: SIK2 IC50
# Recombinant SIK2, sequence (Q9H0K1 whole entry): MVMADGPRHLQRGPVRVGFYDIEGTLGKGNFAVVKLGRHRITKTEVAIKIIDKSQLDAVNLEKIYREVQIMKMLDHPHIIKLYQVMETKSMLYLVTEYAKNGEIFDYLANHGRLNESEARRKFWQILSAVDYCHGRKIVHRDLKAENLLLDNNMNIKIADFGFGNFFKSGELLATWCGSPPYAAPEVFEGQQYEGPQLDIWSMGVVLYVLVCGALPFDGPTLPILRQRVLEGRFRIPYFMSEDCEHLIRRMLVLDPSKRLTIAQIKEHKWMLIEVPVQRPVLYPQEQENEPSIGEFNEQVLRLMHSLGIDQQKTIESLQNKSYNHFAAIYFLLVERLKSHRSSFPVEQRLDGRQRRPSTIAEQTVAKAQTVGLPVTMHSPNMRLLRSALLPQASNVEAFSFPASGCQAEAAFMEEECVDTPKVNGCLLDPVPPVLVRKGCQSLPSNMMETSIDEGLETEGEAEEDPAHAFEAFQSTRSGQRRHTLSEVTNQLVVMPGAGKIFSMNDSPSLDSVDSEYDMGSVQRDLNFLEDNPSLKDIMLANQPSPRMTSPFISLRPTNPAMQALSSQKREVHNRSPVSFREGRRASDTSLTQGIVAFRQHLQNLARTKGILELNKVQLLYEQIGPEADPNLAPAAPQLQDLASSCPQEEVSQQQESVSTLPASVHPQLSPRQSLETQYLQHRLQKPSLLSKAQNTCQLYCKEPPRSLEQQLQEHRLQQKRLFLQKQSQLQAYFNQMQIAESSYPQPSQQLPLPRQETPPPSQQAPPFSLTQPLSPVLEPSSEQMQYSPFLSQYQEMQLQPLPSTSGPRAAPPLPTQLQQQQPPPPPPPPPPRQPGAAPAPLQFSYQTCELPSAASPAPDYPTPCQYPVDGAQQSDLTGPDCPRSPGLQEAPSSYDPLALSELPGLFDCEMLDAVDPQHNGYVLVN
"IC50 (Recombinant SIK2; initial in vitro testing, read-out: SIK2 inhibition IC50) [µM]",SMILES,IC50 (Recombinant SIK2; [1]) [µM],RANKL Fold Induction (RANKL) [fold],CRTC2 Efficacy (% of forskolin) (CRTC2 (TORC2))
< 0.0001,"COc1cc(-c2cnc3cc(-c4cnn(C5CC5)c4)ccn23)cc(OC)c1C(=O)NN [Cmpd. 55A, 4-(7-(1-cyclopropyl-1H-pyrazol-4-yl)imidazo[1,2-a]pyridin-3-yl)-2,6-dimethoxybenzohydrazide]",,,
,"Cc1cn(-c2cccc3ccc(-n4cnc5cc(OCC6(C)COC6)ccc54)nc23)cn1 [Example 1, 8-(4-Methylimidazol-1-yl)-2-[5-[(3-methyloxetan-3-yl)methoxy]benzimidazol-1-yl]quinoline]",0.0307,3.08,
,"CC1(COc2ccc3c(c2)ncn3-c2ccc3cccc(N4CCC5(CCNC5)C4)c3n2)COC1 (centres unmarked) [Example 6, 2-(5-((3-methyloxetan-3-yl)methoxy)-1H-benzo[d]imidazol-1-yl)-8-(2,7-diazaspiro[4.4]nonan-2-yl)quinoline]",0.00575,,127.8 % of forskolin
,"CC1(COc2ccc3c(c2)ncn3-c2ccc3cccc(OC4CNC4)c3n2)COC1 [Example 9, 8-(azetidin-3-yloxy)-2-(5-((3-methyloxetan-3-yl)methoxy)-1H-benzo[d]imidazol-1-yl)quinoline]",0.0246,9.69,
,"CN1CC(Oc2cccc3ccc(-n4cnc5cc(OCC6(C)COC6)ccc54)nc23)C1 [Example 11, 8-((1-Methylazetidin-3-yl)oxy)-2-(5-((3-methyloxetan-3-yl)methoxy)-1H-benzo[d]imidazol-1-yl)quinoline]",0.0227,1.38,
,"CC1(COc2ccn3c(-c4ccc5cccc(N6CCC(N)CC6)c5n4)cnc3c2)COC1 [Example 13, 1-(2-(7-((3-Methyloxetan-3-yl)methoxy)imidazo[1,2-a]pyridin-3-yl)quinolin-8-yl)piperidin-4-amine]",0.00419,,140.6 % of forskolin
,"Cn1cnc(-c2cccc3ccc(-n4cnc5cc(OCC6(C)COC6)ccc54)nc23)c1 [Example 18, 8-(1-Methyl-1H-imidazol-4-yl)-2-(5-((3-methyloxetan-3-yl)methoxy)-1H-benzo[d]imidazol-1-yl)quinoline]",0.185,7.49,
,"Cc1ccc(CNC(=O)c2ccn3c(-c4ccc(C#N)cc4)cnc3c2)cn1 [Example 19, 3-(4-cyanophenyl)-N-[(6-methyl-3-pyridyl)methyl]imidazo[1,2-a]pyridine-7-carboxamide]",,1.04,27 % of forskolin
,"N#Cc1ccc(-c2cnc3cc(C(=O)NCc4ccnnc4)ccn23)cc1 [Example 20, 3-(4-cyanophenyl)-N-(pyridazin-4-ylmethyl)imidazo[1,2-a]pyridine-7-carboxamide]",0.109,,9.4 % of forskolin
,"N#Cc1ccc(-c2cnc3cc(C(=O)NCc4cnccn4)ccn23)cc1 [Example 21, 3-(4-cyanophenyl)-N-(pyrazin-2-ylmethyl)imidazo[1,2-a]pyridine-7-carboxamide]",0.118,,9.9 % of forskolin
,"N#Cc1ccc(-c2cnc3cc(C(=O)NCc4nc5ccccc5o4)ccn23)cc1 [Example 26, N-(benzo[d]oxazol-2-ylmethyl)-3-(4-cyanophenyl)imidazo[1,2-a]pyridine-7-carboxamide]",0.083,0.55,1.3 % of forskolin
,"N#Cc1ccc(-c2cnc3cc(C(=O)NCc4ccco4)ccn23)cc1 [Example 27, 3-(4-cyanophenyl)-N-(furan-2-ylmethyl)imidazo[1,2-a]pyridine-7-carboxamide]",0.132,,5.3 % of forskolin
,"Cc1ccc(CN(C)C(=O)c2ccn3c(-c4ccc(C#N)cc4)cnc3c2)cn1 [Example 30, 3-(4-Cyanophenyl)-N-methyl-N-((6-methylpyridin-3-yl)methyl)imidazo[1,2-a]pyridine-7-carboxamide]",1.7,,1.7 % of forskolin
,"N#Cc1ccc(-n2cnc3cc(C(=O)NCc4cccnc4)ccc32)cc1 [Example 32, 1-(4-cyanophenyl)-N-(3-pyridylmethyl)benzimidazole-5-carboxamide]",,,10.6 % of forskolin
,"N#Cc1ccc(-n2cnc3cc(C(=O)NCc4nc5ccccc5[nH]4)ccc32)cc1 [Example 34, N-((1H-benzo[d]imidazol-2-yl)methyl)-1-(4-cyanophenyl)-1H-benzo[d]imidazole-5-carboxamide]",0.02,,14 % of forskolin
,"N#Cc1ccc(-c2cnc3nc(C(=O)NCc4cccnc4)ccn23)cc1 [Example 36, 3-(4-cyanophenyl)-N-(3-pyridylmethyl)imidazo[1,2-a]pyrimidine-7-carboxamide]",5.3,,2.5 % of forskolin

"IC50 (Recombinant SIK2; initial in vitro testing, read-out: SIK2 inhibition IC50) [µM]",SMILES,IC50 (Recombinant SIK2; [1]) [µM],RANKL Fold Induction (RANKL) [fold],CRTC2 Efficacy (% of forskolin) (CRTC2 (TORC2))
,"COc1cc(-c2cnc3cc(OCC4(C)COC4)ccn23)cc(OC)c1C#N [Example 40, 2,6-dimethoxy-4-(7-((3-methyloxetan-3-yl)methoxy)imidazo[1,2-a]pyridin-3-yl)benzonitrile]",0.00987,,
,"CCn1cc(-c2ccc3c(c2)ncn3-c2ccc(C#N)cc2)cn1 [Example 43, 4-[5-(1-Ethylpyrazol-4-yl)benzimidazol-1-yl]benzonitrile]",0.00589,7.09,
,"N#Cc1ccc(-n2cnc3cc(-c4cnn(C5CC5)c4)ccc32)cc1 [Example 44, 4-(5-(1-Cyclopropyl-1H-pyrazol-4-yl)-1H-benzo[d]imidazol-1-yl)benzonitrile]",0.00234,3.07,
,"CCn1cc(-c2ccn3c(-c4ccc(C#N)cc4)cnc3c2)cn1 [Example 45, 4-[7-(1-Ethylpyrazol-4-yl)imidazo[1,2-a]pyridin-3-yl]benzonitrile]",,9.41,85 % of forskolin
,"CCn1cc(-c2ccn3c(-c4ccc(C#N)nc4)cnc3c2)cn1 [Example 46, 5-(7-(1-ethyl-1H-pyrazol-4-yl)imidazo[1,2-a]pyridin-3-yl)picolinonitrile]",0.014,3.44,
,"N#Cc1ccc(-c2cnc3cc(-n4cnc(C5CC5)c4)ccn23)cc1 [Example 48, 4-[7-(4-Cyclopropylimidazol-1-yl)imidazo[1,2-a]pyridin-3-yl]benzonitrile]",0.00765,,
,"N#Cc1ccc(-c2cnc3cc(-c4cnn(C5COC5)c4)ccn23)cc1 [Example 50, 4-(7-(1-(oxetan-3-yl)-1H-pyrazol-4-yl)imidazo[1,2-a]pyridin-3-yl)benzonitrile]",0.00234,15.84,
,"N#Cc1ccc(-c2cnn3cc(-c4cnn(C5CC5)c4)ccc23)cc1 [Example 54, 4-(6-(1-cyclopropyl-1H-pyrazol-4-yl)pyrazolo[1,5-a]pyridin-3-yl)benzonitrile]",0.00224,9.07,
,"CCc1nnc(-c2c(F)cc(-c3cnc4cc(-c5cnn(C)c5)ccn34)cc2F)o1 [Example 58, 2-(2,6-difluoro-4-(7-(1-methyl-1H-pyrazol-4-yl)imidazo[1,2-a]pyridin-3-yl)phenyl)-5-ethyl-1,3,4-oxadiazole]",1.08,1.26,
,"CCc1nnc(-c2c(Cl)cc(-c3cnc4cc(-c5cnn(C)c5)ccn34)cc2Cl)o1 [Example 59, 2-(2,6-dichloro-4-(7-(1-methyl-1H-pyrazol-4-yl)imidazo[1,2-a]pyridin-3-yl)phenyl)-5-ethyl-1,3,4-oxadiazole]",0.27,,
,"CCn1cc(-c2cnc3c(-c4ccc(C#N)cc4)cnn3c2)cn1 [Example 63, 4-[6-(1-Ethylpyrazol-4-yl)pyrazolo[1,5-a]pyrimidin-3-yl]benzonitrile]",0.0034,0.89,
,"N#Cc1ccc(-c2cnn3cc(-c4cnn(C5CC5)c4)cnc23)cc1 [Example 64, 4-[6-(1-Cyclopropylpyrazol-4-yl)pyrazolo[1,5-a]pyrimidin-3-yl]benzonitrile]",0.0088,0.47,
,"CCn1cc(-c2c(OC)cc(-c3cnn4cc(-c5cnn(C6CC6)c5)ccc34)cc2OC)nn1 [Example 65, 6-(1-Cyclopropylpyrazol-4-yl)-3-[4-(1-ethyltriazol-4-yl)-3,5-dimethoxy-phenyl]pyrazolo[1,5-a]pyridine]",0.0237,,
,"N#Cc1ccc(-c2cnc3cc(-c4cn(C5CC5)nn4)ccn23)cc1 [Example 66, 4-[7-(1-Cyclopropyltriazol-4-yl)imidazo[1,2-a]pyridin-3-yl]benzonitrile]",0.037,,
,"CCn1nnc(-c2ccn3c(-c4ccc(C#N)cc4)cnc3c2)n1 [Example 67, 4-[7-(2-Ethyltetrazol-5-yl)imidazo[1,2-a]pyridin-3-yl]benzonitrile]",0.227,0.47,
